Drawing on US11358969B2, “Indole AHR inhibitors and uses thereof” (Ikena Oncology, Inc., priority 2017, dated 2022), this text covers IC50 for 31 molecules.

The target in this test is T1, AHR (UniProt P35869).
T1 construct: IC50
T1 sequence (P35869 1-848): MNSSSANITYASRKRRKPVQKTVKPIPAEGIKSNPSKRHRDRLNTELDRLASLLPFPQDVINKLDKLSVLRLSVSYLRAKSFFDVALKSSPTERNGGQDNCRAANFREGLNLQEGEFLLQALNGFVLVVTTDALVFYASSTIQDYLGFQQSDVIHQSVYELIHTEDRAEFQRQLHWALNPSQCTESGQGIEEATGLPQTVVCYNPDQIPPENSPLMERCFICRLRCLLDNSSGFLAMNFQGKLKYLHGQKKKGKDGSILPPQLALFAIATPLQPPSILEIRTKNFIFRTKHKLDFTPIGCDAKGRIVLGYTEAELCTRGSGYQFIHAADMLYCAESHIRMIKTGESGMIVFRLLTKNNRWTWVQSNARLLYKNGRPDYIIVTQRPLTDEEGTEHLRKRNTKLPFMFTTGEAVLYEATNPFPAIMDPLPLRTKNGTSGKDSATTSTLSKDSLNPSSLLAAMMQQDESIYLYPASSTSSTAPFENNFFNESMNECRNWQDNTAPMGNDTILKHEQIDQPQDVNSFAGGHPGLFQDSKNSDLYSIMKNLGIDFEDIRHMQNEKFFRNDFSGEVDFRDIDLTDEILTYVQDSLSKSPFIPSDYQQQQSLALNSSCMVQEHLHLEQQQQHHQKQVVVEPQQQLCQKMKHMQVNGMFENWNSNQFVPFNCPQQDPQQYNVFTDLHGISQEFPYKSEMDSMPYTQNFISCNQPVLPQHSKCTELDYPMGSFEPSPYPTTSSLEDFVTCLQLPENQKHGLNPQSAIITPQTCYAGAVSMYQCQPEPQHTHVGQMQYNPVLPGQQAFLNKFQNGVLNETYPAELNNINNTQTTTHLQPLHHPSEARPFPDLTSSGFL
Put plainly: DRE-Luciferase Reporter Assay (Alternate Method) (Example 1B). The format is cell-based, murine or human. The note with it: cell line and AHR activating ligand not specified.

As for `CN(C)C(=O)c1cnn2c(NCCc3c[nH]c4ccccc34)cc(-c3cncc(F)c3)nc12` [I-56, 5-(5-Fluoro-3-pyridyl)-7-[2-(1H-indol-3-yl)ethylamino]-N,N-dimethyl-pyrazolo[1,5-a]pyrimidine-3-carboxamide], the 50% inhibitory concentration (IC50) – broadly, the point on the concentration scale where inhibition reaches its midpoint – is under 0.5 µM. As to `Cc1cnn2c(NCCc3ccc(O)nc3)cc(-c3cncc(F)c3)nc12` [I-194], the IC50 is over 1.5 µM. Turning to `CC(C)c1cnn2c(N[C@H]3CCc4[nH]c5ccccc5c4C3)cc(-c3cncc(F)c3)nc12` [I-75b, (3S)—N-[5-(5-Fluoro-3-pyridyl)-3-isopropyl-pyrazolo[1,5-a]pyrimidin-7-yl]-2,3,4,9-tetrahydro-1H-carbazol-3-amine], the concentration for half-maximal inhibition (IC50) is over 1.5 µM. Next, `CC(C)c1cnn2c(NC3CC3c3ccc(O)cc3)cc(-c3cncc(F)c3)nc12` (stereo not shown) [I-181]: over 1.5 µM; `Cc1cnn2c(N[C@H]3CCc4[nH]c5c(F)cc(F)cc5c4C3)cc(-c3cncc(F)c3)nc12` [I-243b]: over 1.5 µM.

Molecule `Cc1[nH]c2c(F)cccc2c1CCNc1nc(-c2cncc(F)c2)nc2c1ncn2C(C)C` [I-71, N-[2-(7-Fluoro-2-methyl-1H-indol-3-yl)ethyl]-2-(5-fluoro-3-pyridyl)-9-isopropyl-purin-6-amine] yielded an IC50 of under 0.5 µM.

For the molecule `Cc1cnn2c(N[C@@H](Cc3c[nH]c4ccccc34)C(=O)N(C)C)cc(-c3cncc(F)c3)nc12` [I-187b, (2S)-2-[[5-(5-Fluoro-3-pyridyl)-3-methyl-pyrazolo[1,5-a]pyrimidin-7-yl]amino]-3-(1H-indol-3-yl)-N,N-dimethyl-propanamide], the IC50 is over 1.5 µM.

Take `Cc1cnn2c(NCCc3c[nH]c4c(O)cc(O)cc34)cc(-c3cncc(F)c3)nc12` [I-149]: the half-maximal inhibitory concentration (IC50) was over 1.5 µM.

`N#Cc1cncc(-c2cc(NCCc3c[nH]c4ccccc34)n3nccc3n2)c1` [I-43, 5-[7-[2-(1H-Indol-3-yl)ethylamino]pyrazolo[1,5-a]pyrimidin-5-yl]pyridine-3-carbonitrile] displayed an IC50 of 0.5 to 1 µM. Then `Cc1cnn2c(-c3cncc(F)c3)cc(NCCc3c[nH]c4ccccc34)nc12` [I-124, 7-(5-Fluoro-3-pyridyl)-N-[2-(1H-indol-3-yl)ethyl]-3-methyl-pyrazolo[1,5-a] pyrimidin-5-amine], with over 1.5 µM; and `O=C(c1cnn2c(NCCc3c[nH]c4ccccc34)cc(-c3cncc(F)c3)nc12)N1CCCCC1` [I-55, [5-(5-Fluoro-3-pyridyl)-7-[2-(1H-indol-3-yl)ethylamino]pyrazolo[1,5-a]pyrimidin-3-yl]-(1-piperidyl)methanone], with under 0.5 µM; and `CC(C)c1cnn2c(NC3CCc4[nH]c5ccccc5c4C3)nc(-c3cncc(C(F)(F)F)c3)nc12` (stereo not shown) [I-279], with over 1.5 µM. Consider `Cc1[nH]c2c(F)cc(F)cc2c1CCNc1cc(OC(C)C)nc(-c2cncc(F)c2)n1` [I-74, N-[2-(5,7-Difluoro-2-methyl-1H-indol-3-yl)ethyl]-2-(5-fluoro-3-pyridyl)-6-isopropoxy-pyrimidin-4-amine], for which the IC50 lay within 0.5 to 1 µM.

With `CN(C)c1cnn2c(N[C@@H]3Cc4ccc(O)cc4C3)cc(-c3cncc(F)c3)nc12` [I-204a, (2R)-2-[[3-(dimethylamino)-5-(5-fluoro-3-pyridyl)pyrazolo[1,5-a]pyrimidin-7-yl]amino]indan-5-ol], the IC50 is under 0.5 µM. Then `Fc1cncc(-c2nc(NC3CCc4[nH]c5ccccc5c4C3)n3ncc(CNC4CC4)c3n2)c1` (stereo not shown) [I-276], with under 0.5 µM. Take `Cc1cnn2c(N[C@H](Cc3c[nH]c4ccccc34)C(N)=O)cc(-c3cncc(F)c3)nc12` [I-190a]: the IC50 was over 1.5 µM. Then `CC(C)Oc1cc(-c2cncc(F)c2)nc(N[C@@H]2CCc3[nH]c4ccccc4c3C2)n1` [I-134], with over 1.5 µM. Then `CC(C)c1cnn2c(N[C@H]3CCc4[nH]c5c(F)cccc5c4C3)cc(-c3cncc(F)c3)nc12` [I-212], with over 1.5 µM. Then `CC(C)n1cnc2c(NCCc3cn(C)c4ccccc34)nc(-c3cncc(F)c3)nc21` [I-14, 2-(5-Fluoropyridin-3-yl)-9-isopropyl-N-(2-(1-methyl-1H-indol-3-yl)ethyl)-9H-purin-6-amine], with over 1.5 µM; and `CC(C)Oc1cc(NCCc2c[nH]c3c(F)cc(F)cc23)nc(-c2cncc(F)c2)n1` [I-88, N-[2-(5,7-Difluoro-1H-indol-3-yl)ethyl]-2-(5-fluoro-3-pyridyl)-6-isopropoxy-pyrimidin-4-amine], with 0.5 to 1 µM; and `COc1ccccc1-c1cc(NCCc2c[nH]c3ccccc23)n2ncc(C(C)C)c2n1` [I-240, N-[2-(1H-indol-3-yl)ethyl]-3-isopropyl-5-(2-methoxyphenyl)pyrazolo[1,5-a]pyrimidin-7-amine], with over 1.5 µM.

Turning to `Cc1cnn2c(NCCc3ccc(NS(C)(=O)=O)cc3)cc(-c3cncc(F)c3)nc12` [I-195, N-[4-[2-[[5-(5-Fluoro-3-pyridyl)-3-methyl-pyrazolo[1,5-a]pyrimidin-7-yl]amino]ethyl]phenyl]methanesulfonamide], the IC50 was over 1.5 µM. Next, `CC(C)c1cnn2c(NC3CCc4cc(O)ccc4C3)cc(-c3cncc(F)c3)nc12` (stereo in doubt) [I-82b, (2R)-2-[[5-(5-fluoro-3-pyridyl)-3-isopropyl-pyrazolo[1,5-a]pyrimidin-7-yl]amino]tetralin-6-ol]: over 1.5 µM; `CC(C)c1cnn2c(C(=O)NCc3ccc(O)cc3)cc(-c3cncc(F)c3)nc12` [I-100, 5-(5-Fluoro-3-pyridyl)-N-[(4-hydroxyphenyl)methyl]-3-isopropyl-pyrazolo[1,5-a]pyrimidine-7-carboxamide]: over 1.5 µM; `CC(C)c1cnn2c(N[C@@H]3CCc4[nH]c5c(F)cc(F)cc5c4C3)nc(-c3cncc(F)c3)nc12` [I-139b, (3R)-6,8-difluoro-N-[2-(5-fluoro-3-pyridyl)-8-isopropyl-pyrazolo[1,5-a][1,3,5]triazin-4-yl]-2,3,4,9-tetrahydro-1H-carbazol-3-amine]: under 0.5 µM. In the case of `Cc1[nH]c2c(F)cccc2c1CCNc1cc(-c2cncc(F)c2)nc2c(C(C)C)cnn12` [I-66, N-[2-(7-fluoro-2-methyl-1H-indol-3-yl)ethyl]-5-(5-fluoro-3-pyridyl)-3-isopropyl-pyrazolo[1,5-a]pyrimidin-7-amine], the IC50 was under 0.5 µM. Next, `O=C(NC1CC1)c1cnn2c(NC3CCc4[nH]c5ccccc5c4C3)nc(-c3cncc(F)c3)nc12` (stereo not shown) [I-285]: over 1.5 µM; `O=C(c1cnn2c(NCCc3c[nH]c4ccccc34)cc(-c3cncc(F)c3)nc12)N1CCNCC1` [I-58, [5-(5-Fluoro-3-pyridyl)-7-[2-(1H-indol-3-yl)ethylamino]pyrazolo[1,5-a]pyrimidin-3-yl]-piperazin-1-yl-methanone]: over 1.5 µM. Then `Cc1cnn2c(NC(Cc3c[nH]c4ccccc34)CN(C)C)cc(-c3cncc(F)c3)nc12` (stereo not shown) [I-176], with over 1.5 µM; and `CC(C)n1cnc2c(NCCc3cn4ccccc4n3)nc(-c3cncc(F)c3)nc21` [I-22, 2-(5-Fluoro-3-pyridyl)-N-(2-imidazo[1,2-a]pyridin-2-ylethyl)-9-isopropyl-purin-6-amine], with under 0.5 µM. Then `CC(C)c1cnn2c(N[C@@H]3CCc4[nH]c5ccccc5c4C3)nc(N3CCOCC3)nc12` [I-254, (3R)—N-(8-Isopropyl-2-morpholino-pyrazolo[1,5-a][1,3,5]triazin-4-yl)-2,3,4,9-tetrahydro-1H-carbazol-3-amine], with over 1.5 µM.
